Experiments:
[1] = test system: H1299-EGFRmt cell model; assay: Cell viability, H1299-EGFRmt cell model; type: cell-based
Protocol: (§1) Cell viability was determined using an MTT assay.

[2] = test system: H1299-EGFRwt and H1299-EGFRmt cell models; assay: 3D-VM vasculature under single use of osimertinib (cell model not given); type: cell-based
Protocol: (§2) The assessment of in vitro vasculogenic mimicry (VM) capabilities of cancer cells was conducted utilizing the Matrigel tube formation assay. Chamber slides (TruLive3D Dishes, Burker) were prepared by applying a 100 μl layer of growth factor-reduced Matrigel (Corning) and subsequently allowing for gel solidification over a 30-minute period at 37° C. […] This preparation was then incubated for an additional 30 minutes at 37° C. within a CO2 incubator. […]
(§3) The quantification of tube or lumen formation of 3D-VM vasculature was conducted utilizing an analytical approach on at least eight distinct areas of interest (AOIs), among which three AOIs were specified as representative sections of images. […] First, the AOI was identified and quantified. Following this, the mean ROI was calculated by aggregating the ROIs for all eight AOIs (area 1+ area 2+ . . . area 8) and dividing this sum by eight, thereby deriving an average area that reflects the typical dimensions of the regions analyzed in each individual lung cancer cell model. […]
(§4) The entire quantification process was facilitated by employing the Angiogenesis Analyzer for ImageJ.

[3] = test system: H1299-EGFRwt cell model; conditions: osimertinib
Protocol: Cell viability was determined using an MTT assay. Cells were plated at a density of 4×10^3 cells/well within 96-well plates. These cells were then exposed to various concentrations of anti-vasculogenic mimicry (anti-VM) compounds across different time points: 0, 24, 48, and 72 hours. Following the treatment period, the MTT reagent (sourced from Sigma) was added to each well, and the cells were incubated at 37° C. for 2 hours. Subsequently, the plates were centrifuged at 1500 rpm for 10 minutes to facilitate the removal of the supernatant. The resultant formazan crystals were dissolved using dimethyl sulfoxide (DMSO), and the absorbance of the solution, indicative of cell viability, was measured at a wavelength of 492 nm using an ELISA plate reader.

[4] = test system: phosphorylated EGFR; conditions: Western blot, H1299, H1299-EGFRwt, H1299-EGFRmt cell models
Protocol: (§7) Cells were seeded at a density of 2×10^6 cells in a 6 cm culture dish for protein sample preparation. […] After centrifugation, the cell lysate samples were boiled with 6X sample buffer for 10 minutes. The cell lysate protein samples were separated by SDS-PAGE and transferred to polyvinylidene difluoride (PVDF) membranes (Millipore). The membranes were then blocked with 5% skim milk (HIMEDIA) dissolved in Tris-buffered saline Tween (TBST) buffer for 1 hour, followed by three 10-minute washes with TBST. […] Subsequently, the membranes were incubated with the appropriate secondary antibodies for 1 hour at room temperature. Protein expressions were visualized using Western Lightning Plus ECL (PerkinElmer), detected by the iBright FL1000 imaging system, and analyzed using ImageJ software.

[5] = test system: H1650 lung cancer cell model; assay: 3D-VM vasculature disruption, H1650 lung cancer cell model (real-time LSFM, lumen quantification); type: cell-based
Protocol: The assessment of in vitro vasculogenic mimicry (VM) capabilities of cancer cells was conducted utilizing the Matrigel tube formation assay. Chamber slides (TruLive3D Dishes, Burker) were prepared by applying a 100 μl layer of growth factor-reduced Matrigel (Corning) and subsequently allowing for gel solidification over a 30-minute period at 37° C. Following solidification, a cell suspension prepared in culture media at a concentration of 1.25×10^5 cells per 150 μl was evenly distributed over the gel surface. This preparation was then incubated for an additional 30 minutes at 37° C. within a CO2 incubator. After this initial incubation period, an overlay of 1× Matrigel mixed with culture medium was applied directly to the cells, so as to obtain a pre-cell model (10), and followed by further incubation at 37° C. for 5 to 24 hours so that a lung cancer cell model (100) was obtained for subsequent 3D-VM observation.
The quantification of tube or lumen formation of 3D-VM vasculature was conducted utilizing an analytical approach on at least eight distinct areas of interest (AOIs), among which three AOIs were specified as representative sections of images. The region of interest (ROI) indicates a delineated patent tube or hollow lumen within each tested cell. First, the AOI was identified and quantified. Following this, the mean ROI was calculated by aggregating the ROIs for all eight AOIs (area 1+ area 2+ . . . area 8) and dividing this sum by eight, thereby deriving an average area that reflects the typical dimensions of the regions analyzed in each individual lung cancer cell model. Finally, the standard average was ascertained by dividing the mean ROI by the mean total tube average. This ratio provides a standardized metric, enabling the effective comparison of anti-3D-VM vasculature efficiency across varying experimental setups or among different cell lines; the formula is as follows: […]
as §4

[6] = test system: HCC827 lung cancer cell model; assay: 3D-VM vasculature disruption, HCC827 lung cancer cell model (real-time LSFM, lumen quantification); type: cell-based; conditions: HCC827, 500 nM, 24-hour incubation
Protocol: (§5) The assessment of in vitro vasculogenic mimicry (VM) capabilities of cancer cells was conducted utilizing the Matrigel tube formation assay. Chamber slides (TruLive3D Dishes, Burker) were prepared by applying a 100 μl layer of growth factor-reduced Matrigel (Corning) and subsequently allowing for gel solidification over a 30-minute period at 37° C. Following solidification, a cell suspension prepared in culture media at a concentration of 1.25×10^5 cells per 150 μl was evenly distributed over the gel surface. This preparation was then incubated for an additional 30 minutes at 37° C. within a CO2 incubator. […]
as §3, §4

[7] = test system: H1650 cells; assay: Cell viability (MTT assay), H1650; type: cell-based; conditions: H1650 lung cancer cell model, various foslinanib concentrations
Protocol: as §1

[8] = Cell viability (MTT assay), HCC827; type: cell-based; conditions: human, HCC827 cells; HCC827, 62.5 nM
Protocol: as §1

[9] = test system: H1299 cell model; assay: Cell viability, H1299 cell model; type: cell-based; conditions: H1299, high concentration (beyond 250 nM)
Protocol: as §1

[10] = test system: H1299-EGFRmt cell model; assay: 2D-VM networks inhibition assay via high-content imaging, H1299-EGFRmt; type: cell-based; conditions: any concentration beyond 31.25 nM
Protocol: (§6) Cells to be tested were plated in 96-well plates (manufactured by Greiner) and allowed to adhere overnight under standard culture conditions. Following attachment, the cells to be tested were exposed to various concentrations of anti-VM compound foslinanib (ABEx BIO-Research Center). The treatment's efficacy, specifically its ability to inhibit VM vasculature, was monitored time-dependent. The assessment of 2D-VM network disruption was conducted using the ImageXpressR Micro Confocal High-Content Imaging System (Molecular Devices LLC). This advanced imaging technology facilitates high-resolution visualization of cell morphology and tubular networks. Analysis of the imaging data was performed using MetaXpress software, allowing for quantitative measurement of 2D-VM network inhibition. This methodological approach provides a robust framework for evaluating the potential of anti-VM compounds.

[11] = test system: H1299-EGFRwt cell model; assay: 2D-VM networks inhibition assay via high-content imaging, H1299-EGFRwt; type: cell-based; conditions: high concentration (beyond 31.25 nM)
Protocol: as §6

[12] = test system: H1299 cell model; assay: 2D-VM networks inhibition assay via high-content imaging, H1299; type: cell-based; conditions: H1299, compared with H1299-EGFRmt cell model
Protocol: as §6

[13] = test system: H1299-EGFRwt cell model; assay: 3D-VM vasculature disruption, H1299-EGFRwt cell model; type: cell-based; conditions: foslinanib 62.5 nM
Protocol: as §2, §3, §4

[14] = test system: H1299-EGFRmt cell model; assay: 3D-VM vasculature disruption, H1299-EGFRmt cell model; type: cell-based
Protocol: as §5, §3, §4

[15] = test system: LAMC2; assay: Western blot, LAMC2 in H1299, H1299-EGFRwt and H1299-EGFRmt cell models; type: cell-based; conditions: across the examined cell lines
Protocol: as §7

[16] = test system: various tumor xenograft models; conditions: cited from earlier work

## C=CC(=O)Nc1cc(Nc2nccc(-c3cn(C)c4ccccc34)n2)c(OC)cc1N(C)CCN(C)C [osimertinib]
[1]; H1299mt cell model, osimertinib
  cytotoxic effects: cytotoxic effects
[2]; after osimertinib treatment
  3D-VM vasculature (quantitative analysis): significantly disrupted
[2]; osimertinib
  formation of 3D-VM vasculature (3D imaging): did not impact
[3]
  cytotoxic effects: cytotoxic effects
[4]
  levels of phosphorylated EGFR: markedly reduced

## COc1ccc2[nH]c(-c3cccc(F)c3)cc(=O)c2c1OP(=O)(O)O [foslinanib]
[5]; H1650, 62.5 nM
  disruption of VM lumens: disruption of VM lumens
[5]; H1650, 250 nM and 500 nM
  inhibition of 3D-VM vasculature: significant inhibition
  lumen area: significantly reduced
[6]
  lumen area: significant reduction
[7]
  cell toxicity against H1650 cells: no significant cell toxicity
[8]
  viability at 0.0625 µM: 70%
[1]; H1299-EGFRmt, 31.25 nM (range 7.8125 nM to 500 nM)
  cell viability: significant decrease
[9]
  cell viability: suppressed
[10]
  2D total network area: decreasing trend
  2D total network length: decreasing trend
[11]
  inhibitory effect on the formation of a 2D-VM network: rather insignificant
[12]
  2D total network area: less effective inhibition
  2D total network length: less effective inhibition
[13]
  effect on 3D-VM vasculature: disruptive effect
[14]
  disruption of 3D-VM vasculature (quantitative analysis): significant
[15]
  LAMC2 protein levels: significant decrease
[16]
  anti-tumor efficacy: robust anti-tumor efficacy

Source: patent US20250066737A1, “METHOD FOR ESTABLISHING LUNG CANCER CELL MODEL HAVING VASCULAR TUBES, PLATFORM FOR LUNG CANCER MEDICINE SCREENING AND METHOD FOR USING THEREOF” (National Cheng Kung University Hospital, priority 2023, published 2025)
